# Results reported in patent publication EP3965790B1, “PENTACYCLIC TRITERPENES IN THE TREATMENT OF VITILIGO” (Pierre Fabre Dermo-Cosmétique, priority 2019, dated 2020).
# Key:
# S100A7 = assay: RT-qPCR gene expression in cytokine-stimulated keratinocytes; assay type: cell-based, humains; settings: stimulated keratinocytes, 24 h
# CCL5 = assay: as above; assay type: cell-based, humains; settings: stimulated keratinocytes, 24 h
# CXCL11 = assay: as above; assay type: cell-based, humains; settings: stimulated keratinocytes, 24 h
# CCL20 = assay: as above; assay type: cell-based, humains; settings: stimulated keratinocytes, 24 h
# MMP-9 [1] = assay: ELISA of MMP-9 release by cytokine-stimulated keratinocytes; assay type: cell-based, humains
# IL-8 [2] = assay: ELISA of IL-8 release by cytokine-stimulated keratinocytes; assay type: cell-based, humains
# [3] = ORAC (Oxygen Radical Antioxydant Capacity) antioxidant test in tubo; settings: 30 µg/ml; Trolox standard, AAPH, fluorescéine
# Excerpt: Le stress oxydatif fait partie des causes possibles de l'apparition du vitiligo. Cette expérience a pour objectif de mesurer l'activité antioxydante de chaque triterpène pentacyclique et des deux extraits, en comparaison avec un témoin positif bien connu, la vitamine C. La méthode in tubo utilisée est celle d'évaluation ORAC (Oxygen Radical Antioxydant Capacity) adaptée de celle décrite par Davalos et al. (J Agric Food Chem 52(1):48-54, 2004). L'indice ORAC permet d'évaluer la capacité anti-oxydante de chaque composé testé dans l'exemple 2. Ce test permet d'évaluer et de classer les différents composés testés suivant leur pouvoir anti-oxydant vis-à-vis des radicaux libres péroxyl. Le AAPH (2,2'-azobis-2-méthyl-propanimidamide, dihydrochloride) est à l'origine de radicaux libres péroxyl. Ce test est utilisé pour mimer la cinétique de dégradation de la fluorescéine par les radicaux libres. Ceci se traduit par une diminution de fluorescence en fonction du temps et de la concentration en actif anti-oxydant présent dans l'extrait testé. L'acide 3,4-dihydro-6-hydroxy-2,5,7,8-tétraméthyl-2H-1-benzopyran-2-carboxylique ou Trolox est utilisé comme standard, il s'agit d'un analogue hydrophile de la vitamine E (anti-oxydant connu). L'ajout de Trolox (gamme de référence) ou d'extrait ou triterpène pentacyclique, protège la fluorescéine de la dégradation. Ceci permet d'évaluer une activité antioxydante mesurée par rapport à une gamme de Trolox.
# Toutes les solutions sont réalisées dans du tampon phosphate 75 mM, pH à 7,6. La fluorescéine est à 1,17 µM (solution mère […]). AAPH à 125 mM est préparé extemporanément, Trolox à 1 mM. Dans une plaque de 96 puits noir, il est déposé 20 µl d'antioxydant (gamme Trolox ou composé à tester), 160 µl de fluorescéine à 1,17 µM. la plaque est recouverte d'un film, puis est incubée pendant 15 minutes à 37°C. la solution de AAPH est ajoutée manuellement et le plus rapidement possible à raison de 20 µl par puits. La plaque est alors incubée immédiatement à 37°C dans un spectrofluorimètre (SpectraMax). Une lecture est enregistrée toutes les minutes pendant 90 minutes. La longueur d'onde d'excitation est de 485 nm et la longueur d'onde d'émission est de 520 nm. Chaque essai est réalisé en triplicata.
# Les aires sous la courbe (AUC) pour chacun des essais sont calculées. Les AUC nets sont déterminées de la façon suivante : AUC net = AUC point de gamme ou échantillon−AUC blanc. [formula]
# La droite d'étalonnage est établie, la concentration en Trolox (µM) en fonction de l'AUC net. L'équation de la droite est utilisée pour déterminer un équivalent en Trolox (µM) pour chacun des échantillons dosés.
# Eq Trolox en µM = a x (AUC net)2 + b x (AUC net), a et b sont déterminés par l'équation de la droite.
# Pour être dosés, les échantillons sont dilués, de sorte que les valeurs mesurées soient comprises dans la gamme étalon utilisée pour le dosage. L'acide ascorbique (vitamine C) est utilisé comme référence.
# L'indice ORAC correspond à des […] de Trolox / 100g de matières.
# Les résultats ci-dessous ont été calculés pour 100g d'extrait en Triterpènes, Tingénine A, Tingénine B et célastrol, soit le calcul : [formula]
# MMP-9 [4] = assay: RT-qPCR gene expression in cytokine-stimulated keratinocytes; assay type: cell-based, humains; settings: stimulated keratinocytes, 24 h
# DEFB4A = assay: as above; assay type: cell-based, humains; settings: stimulated keratinocytes, 24 h
# CXCL10 = assay: as above; assay type: cell-based, humains; settings: stimulated keratinocytes, 24 h
# IL-8 [5] = assay: as above; assay type: cell-based, humains; settings: stimulated keratinocytes, 24 h
# IL-23A = assay: as above; assay type: cell-based, humains; settings: stimulated keratinocytes, 24 h
# CXCL16 = assay: as above; assay type: cell-based, humains; settings: stimulated keratinocytes, 24 h
# [6] = 100 ng/ml, stimulated keratinocytes, 48 h, supernatant
# [7] = concentrations as in Tableau 5 (JAK 10 µM; TA, TB 500 ng/ml; Célastrol 100 ng/ml; extrait 1 200 ng/ml; extrait 2 150 ng/ml)
compound,measurement,setting,value
CC1=C(O)C(=O)C=C2C1=CC=C1[C@@]2(C)CC[C@@]2(C)[C@@H]3C[C@](C)(C(=O)O)CC[C@]3(C)CC[C@]12C [Célastrol],"% Stimulation / Gènes témoins, S100A7",S100A7; 15 ng/ml,78%
same,"% Stimulation / Gènes témoins, S100A7",S100A7; 45 ng/ml,53%
same,"% Stimulation / Gènes témoins, S100A7",S100A7; 135 ng/ml,16%
same,"% Stimulation / Gènes témoins, CCL5",CCL5; 15 ng/ml,79%
same,"% Stimulation / Gènes témoins, CCL5",CCL5; 45 ng/ml,12%
same,"% Stimulation / Gènes témoins, CCL5",CCL5; 135 ng/ml,3%
same,"% Stimulation / Gènes témoins, CXCL11",CXCL11; 15 ng/ml,59%
same,"% Stimulation / Gènes témoins, CXCL11",CXCL11; 45 ng/ml,5%
same,"% Stimulation / Gènes témoins, CXCL11",CXCL11; 135 ng/ml,1%
same,"% Stimulation / Gènes témoins, CCL20",CCL20; 15 ng/ml,86%
same,"% Stimulation / Gènes témoins, CCL20",CCL20; 45 ng/ml,35%
same,"% Stimulation / Gènes témoins, CCL20",CCL20; 135 ng/ml,11%
same,Libération de MMP-9 (pg/ml) ± sem,MMP-9 [1]; [6],395 ± 15 pg/mL
same,effet sur la libération de MMP-9 (in words),MMP-9 [1]; [7],effet inhibiteur
same,Libération d'IL-8 (pg/ml) ± sem,IL-8 [2]; [6],83 ± 7 pg/mL
same,effet sur la libération d'IL-8 (in words),IL-8 [2]; [7],effet inhibiteur
same,Indice ORAC / 100g triterpènes (x 1000),[3],126 466 / 100g triterpènes (x 1000)
same,"% Stimulation / Gènes témoins, MMP-9",MMP-9 [4]; 15 ng/ml,139%
same,"% Stimulation / Gènes témoins, MMP-9",MMP-9 [4]; 45 ng/ml,88%
same,"% Stimulation / Gènes témoins, MMP-9",MMP-9 [4]; 135 ng/ml,9%
same,"% Stimulation / Gènes témoins, DEFB4A",DEFB4A; 15 ng/ml,90%
same,"% Stimulation / Gènes témoins, DEFB4A",DEFB4A; 45 ng/ml,32%
same,"% Stimulation / Gènes témoins, DEFB4A",DEFB4A; 135 ng/ml,3%
same,"% Stimulation / Gènes témoins, CXCL10",CXCL10; 15 ng/ml,72%
same,"% Stimulation / Gènes témoins, CXCL10",CXCL10; 45 ng/ml,20%
same,"% Stimulation / Gènes témoins, CXCL10",CXCL10; 135 ng/ml,10%
same,"% Stimulation / Gènes témoins, IL-8",IL-8 [5]; 15 ng/ml,100%
same,"% Stimulation / Gènes témoins, IL-8",IL-8 [5]; 45 ng/ml,36%
same,"% Stimulation / Gènes témoins, IL-8",IL-8 [5]; 135 ng/ml,5%
same,"% Stimulation / Gènes témoins, IL-23A",IL-23A; 15 ng/ml,63%
same,"% Stimulation / Gènes témoins, IL-23A",IL-23A; 45 ng/ml,41%
same,"% Stimulation / Gènes témoins, IL-23A",IL-23A; 135 ng/ml,15%
same,"% Stimulation / Gènes témoins, CXCL16",CXCL16; 15 ng/ml,95%
same,"% Stimulation / Gènes témoins, CXCL16",CXCL16; 45 ng/ml,51%
same,"% Stimulation / Gènes témoins, CXCL16",CXCL16; 135 ng/ml,23%
